The values that follow come from ChEMBL document CHEMBL1201862, “PubChem BioAssay data set” (2004).

Each structure is given as a SMILES string. The source made the active and inactive calls.

The target in assay [1] is DNA dC->dU-editing enzyme APOBEC-3G (Homo sapiens, UniProt Q9HC16). The experiment in a line: Dose Response confirmation of small molecule APOBEC3G DNA Deaminase Inhibitors via a fluorescence-based single-stranded DNA deaminase assay. [Related pubchem assays (depositor defined):AID493012, AID493028]. Format: functional.
DNA dC->dU-editing enzyme APOBEC-3G, sequence (Q9HC16 whole entry): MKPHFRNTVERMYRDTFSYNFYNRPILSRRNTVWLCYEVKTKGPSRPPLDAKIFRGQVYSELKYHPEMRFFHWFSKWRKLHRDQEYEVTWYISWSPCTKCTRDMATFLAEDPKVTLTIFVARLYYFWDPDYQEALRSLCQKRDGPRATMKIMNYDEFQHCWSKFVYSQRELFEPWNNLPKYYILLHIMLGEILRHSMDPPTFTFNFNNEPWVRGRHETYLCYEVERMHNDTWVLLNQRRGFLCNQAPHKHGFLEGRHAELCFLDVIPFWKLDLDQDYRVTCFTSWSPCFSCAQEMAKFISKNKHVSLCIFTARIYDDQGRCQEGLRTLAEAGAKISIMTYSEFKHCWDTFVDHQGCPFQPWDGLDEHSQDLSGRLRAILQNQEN
The target of assay [2] is T1, Eukaryotic translation initiation factor 2-alpha kinase 3 (Homo sapiens, UniProt Q9NZJ5).
T1 sequence (Q9NZJ5 whole entry): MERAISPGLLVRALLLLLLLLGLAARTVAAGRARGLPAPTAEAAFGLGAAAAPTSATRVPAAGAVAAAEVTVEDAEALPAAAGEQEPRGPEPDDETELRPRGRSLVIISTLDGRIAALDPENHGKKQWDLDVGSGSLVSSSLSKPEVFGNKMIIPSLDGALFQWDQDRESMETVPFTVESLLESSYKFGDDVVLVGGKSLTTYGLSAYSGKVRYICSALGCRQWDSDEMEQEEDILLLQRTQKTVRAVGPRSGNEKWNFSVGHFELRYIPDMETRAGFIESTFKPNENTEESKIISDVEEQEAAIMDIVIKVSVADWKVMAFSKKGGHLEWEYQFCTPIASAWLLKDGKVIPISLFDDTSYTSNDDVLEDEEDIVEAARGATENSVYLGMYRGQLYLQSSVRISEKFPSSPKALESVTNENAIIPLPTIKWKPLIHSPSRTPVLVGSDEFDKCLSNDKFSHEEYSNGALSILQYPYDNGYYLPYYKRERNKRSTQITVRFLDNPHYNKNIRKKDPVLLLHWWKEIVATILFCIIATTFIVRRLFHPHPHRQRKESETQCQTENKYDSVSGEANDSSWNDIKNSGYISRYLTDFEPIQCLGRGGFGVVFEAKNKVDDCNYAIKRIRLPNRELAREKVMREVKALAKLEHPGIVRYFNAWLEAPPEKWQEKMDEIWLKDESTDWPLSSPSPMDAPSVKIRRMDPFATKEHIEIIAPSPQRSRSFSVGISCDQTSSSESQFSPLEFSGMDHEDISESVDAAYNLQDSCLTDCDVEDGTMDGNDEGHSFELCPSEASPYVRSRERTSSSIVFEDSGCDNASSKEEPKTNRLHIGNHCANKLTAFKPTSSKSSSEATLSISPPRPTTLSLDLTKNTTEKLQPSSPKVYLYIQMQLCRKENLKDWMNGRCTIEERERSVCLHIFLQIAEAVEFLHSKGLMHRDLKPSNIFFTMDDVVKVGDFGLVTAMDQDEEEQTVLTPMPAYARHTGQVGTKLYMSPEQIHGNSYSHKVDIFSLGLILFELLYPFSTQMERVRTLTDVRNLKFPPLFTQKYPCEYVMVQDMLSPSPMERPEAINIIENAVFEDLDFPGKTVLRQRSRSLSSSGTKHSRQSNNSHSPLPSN
The experiment in a line: Counterscreen assay for PERK inhibitors: Dose response cell-based high throughput screening assay to measure inhibition of PERK at 6 hours. [Related pubchem assays: 1522, 1416 ]. Format: functional.

Assay [3] concerns the target T1, Eukaryotic translation initiation factor 2-alpha kinase 3. Briefly: Dose response cell-based high-throughput screening assay to measure PERK inhibition. [Related pubchem assays: 1416 ]. Format: functional.
Another assay in a line: cells. Type of assay: functional, cell-based.
The test system of another assay is HeLa. Briefly: HeLa cell cytotoxicity, dose response, cytotoxicity control, 24 h, cherry-picked samples (AID 504726).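 Further: potency for cytotoxicity as loss of luminescence signal.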 Format: functional, cell-based. To be noted: Homo sapiens.
Assay [4] deals with T2, Oxysterols receptor LXR-beta (Homo sapiens, UniProt P55055).
T2 sequence (P55055 whole entry): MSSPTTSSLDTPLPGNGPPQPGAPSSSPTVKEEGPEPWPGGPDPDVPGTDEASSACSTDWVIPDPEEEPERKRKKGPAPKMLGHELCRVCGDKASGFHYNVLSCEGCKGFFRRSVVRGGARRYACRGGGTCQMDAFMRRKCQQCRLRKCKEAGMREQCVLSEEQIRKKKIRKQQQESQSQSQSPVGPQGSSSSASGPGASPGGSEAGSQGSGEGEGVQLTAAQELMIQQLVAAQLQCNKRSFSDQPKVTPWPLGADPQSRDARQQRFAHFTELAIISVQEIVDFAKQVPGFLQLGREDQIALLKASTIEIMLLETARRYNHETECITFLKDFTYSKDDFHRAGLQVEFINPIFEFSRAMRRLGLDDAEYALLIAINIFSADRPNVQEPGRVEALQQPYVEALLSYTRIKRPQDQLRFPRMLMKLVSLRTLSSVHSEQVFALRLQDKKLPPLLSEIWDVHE
Type of assay: functional, cell-based.

For another assay, the system named is H4. The experiment in a line: Luminescence Cell-Based Dose Response HTS to Identify Activators of 5'UTR Stem-Loop Driven Prion Protein mRNA Translation in H4 Neuroglioblastoma Cells. [Related pubchem assays: 1829 (Project Summary), 1814 (Primary HTS)]. Format: functional. To be noted: Homo sapiens.
The target of assay [5] is T3, Endoribonuclease toxin MazF (Escherichia coli K-12, UniProt P0AE70).
T3 sequence (P0AE70 whole entry): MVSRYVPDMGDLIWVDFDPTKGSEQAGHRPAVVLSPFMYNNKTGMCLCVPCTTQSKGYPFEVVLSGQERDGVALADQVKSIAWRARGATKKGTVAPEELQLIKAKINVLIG
The experiment in a line: MazF toxin RNase activators, dose response, biochemical, fluorescence, single-stranded RNA substrate, uHTS hits (AID 588481). Type of assay: functional.

The target of assay [6] is T3, Endoribonuclease toxin MazF. Briefly: fluorescent RNA oligo signal without MazF, dose response, counter-screen for MazEF activator project, biochemical, fluorescence, single-stranded RNase substrate (AID 588502). Format: functional.
The nature of assay [7]: Luminescence Cell-Based Dose Response HTS to Identify Activators of Luciferase Translation or Activity in H4 […] Cells. [Related pubchem assays: 1829 (Project Summary), 1814 (Primary HTS)]. Format: functional.
The nature of assay [8]: Luminescence Cell-Based Dose Confirmation HTS to Identify Activators of 5'UTR Stem-Loop Driven Alpha-Synuclein mRNA Translation in H4 Neuroglioblastoma Cells. [Related pubchem assays: 1829 (Project Summary), 1814 (Primary HTS)]. Format: functional.
In assay [9] the target is T4, Dual specificity protein phosphatase 6 (Rattus norvegicus, UniProt Q64346).
T4 sequence (Q64346 whole entry): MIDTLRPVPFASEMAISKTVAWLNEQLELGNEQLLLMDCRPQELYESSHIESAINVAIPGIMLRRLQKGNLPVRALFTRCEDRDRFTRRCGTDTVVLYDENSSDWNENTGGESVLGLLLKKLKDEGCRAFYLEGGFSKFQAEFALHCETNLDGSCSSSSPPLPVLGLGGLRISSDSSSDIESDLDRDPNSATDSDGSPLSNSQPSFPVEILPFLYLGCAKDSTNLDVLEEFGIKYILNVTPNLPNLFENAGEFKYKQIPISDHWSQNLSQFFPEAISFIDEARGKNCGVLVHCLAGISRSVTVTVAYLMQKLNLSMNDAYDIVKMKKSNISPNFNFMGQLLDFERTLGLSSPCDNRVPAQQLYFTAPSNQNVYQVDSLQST
Format: functional.

The target in assay [10] is T5, Tyrosine-protein phosphatase non-receptor type 7 (Homo sapiens, UniProt P35236).
T5 sequence (P35236 whole entry): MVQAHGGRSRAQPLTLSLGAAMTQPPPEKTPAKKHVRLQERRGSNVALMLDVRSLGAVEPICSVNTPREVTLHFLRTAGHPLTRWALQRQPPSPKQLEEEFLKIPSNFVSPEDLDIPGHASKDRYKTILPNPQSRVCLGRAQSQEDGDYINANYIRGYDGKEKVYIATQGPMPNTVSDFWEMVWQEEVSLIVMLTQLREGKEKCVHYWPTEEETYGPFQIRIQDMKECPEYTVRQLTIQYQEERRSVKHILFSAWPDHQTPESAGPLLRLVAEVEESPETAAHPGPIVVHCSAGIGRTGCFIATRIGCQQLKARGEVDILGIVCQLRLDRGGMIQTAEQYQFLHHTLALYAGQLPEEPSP
Type of assay: functional.

Assay [11] concerns the target Heat shock cognate 71 kDa protein (Homo sapiens, UniProt P11142). Briefly: In Vitro Hsc70 Dose Response Fluorescence Polarization Assay. [Related pubchem assays: 1072 ]. On the technique in general: Fluorescence polarisation rises when a labelled molecule tumbles more slowly, as on binding a larger partner.
Assay [12] concerns the target T4, Dual specificity protein phosphatase 6.
Assay [13] has as its target Heat shock 70 kDa protein 1A (Homo sapiens, UniProt P0DMV8). The experiment in a line: Hsp70 inhibitors, SAR follow-up, biochemical, fluorescence polarization (AID 1072).
Assay [14] concerns the target Glyceraldehyde-3-phosphate dehydrogenase (Homo sapiens, UniProt P04406).
Assay [15] has as its target Voltage-dependent T-type calcium channel subunit alpha-1H (Homo sapiens, UniProt O95180). Format: functional.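 Further: channel activity triggered by adding a high calcium stimulation buffer.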
A further assay concerns the target X-box-binding protein 1 (Homo sapiens, UniProt P17861). Format: functional, Cricetulus griseus.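 Further: confirmatory dose-response counter-screen serving a CHOP assay.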
The target in another assay is Beta-galactosidase (Escherichia coli, UniProt Q8VNN2). Briefly: beta-galactosidase enzyme inhibitors and activators, dose response, artefact control for CCR6 antagonist project, biochemical, E. coli enzyme, set 3 (AID 504712). Format: functional.
Assay [16] has as its target Polyadenylate-binding protein 1 (Homo sapiens, UniProt P11940). The experiment in a line: PABP poly(A) RNA binding inhibitors, primary screen, biochemical, fluorescence polarization, uHTS (AID 2014).
Assay [17] addresses Eukaryotic translation initiation factor 4H (Homo sapiens, UniProt Q15056). Briefly: human eIF4H binding inhibitors, primary screen, translation initiation inhibitor project, biochemical, uHTS, fluorescence polarization (AID 2012).
The target in the next assay is Paired box protein Pax-8 (Homo sapiens, UniProt Q06710). The experiment in a line: inhibitors of PAX8-driven TPO luciferase reporter, dose response, RMG-I cells, cherry-pick (AID 687027).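 Further: luciferase reporter driven by Pax8 target thyroperoxidase promoter measured by SteadyGlo luminescence.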 Format: functional, cell-based. Background: In a reporter assay the amount or activity of a reporter protein is the signal.

One may read the IC50 as the concentration that inhibits the measured activity by half. By EC50 is commonly meant the concentration giving half of the maximal effect. By AC50 is commonly meant the concentration at which the activity in the assay is half-maximal.

Heat shock cognate 71 kDa protein, sequence (P11142 whole entry): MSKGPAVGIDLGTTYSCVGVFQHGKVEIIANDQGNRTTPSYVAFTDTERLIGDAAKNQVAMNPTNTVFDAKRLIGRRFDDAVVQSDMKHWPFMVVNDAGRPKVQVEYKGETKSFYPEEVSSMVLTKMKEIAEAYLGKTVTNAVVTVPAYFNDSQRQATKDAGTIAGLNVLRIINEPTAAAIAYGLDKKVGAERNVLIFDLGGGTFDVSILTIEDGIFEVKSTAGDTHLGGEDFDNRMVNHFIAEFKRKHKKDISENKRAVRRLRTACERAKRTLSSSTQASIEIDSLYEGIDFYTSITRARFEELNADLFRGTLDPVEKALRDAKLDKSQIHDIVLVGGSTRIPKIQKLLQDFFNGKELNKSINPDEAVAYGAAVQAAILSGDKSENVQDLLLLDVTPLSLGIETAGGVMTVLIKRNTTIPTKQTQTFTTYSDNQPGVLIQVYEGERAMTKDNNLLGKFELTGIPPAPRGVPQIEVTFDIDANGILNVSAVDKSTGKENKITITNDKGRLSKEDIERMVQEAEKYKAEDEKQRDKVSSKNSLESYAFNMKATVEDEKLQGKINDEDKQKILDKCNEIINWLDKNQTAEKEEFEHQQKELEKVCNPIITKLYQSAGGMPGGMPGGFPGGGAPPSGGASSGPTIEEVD
Glyceraldehyde-3-phosphate dehydrogenase, sequence (P04406 whole entry): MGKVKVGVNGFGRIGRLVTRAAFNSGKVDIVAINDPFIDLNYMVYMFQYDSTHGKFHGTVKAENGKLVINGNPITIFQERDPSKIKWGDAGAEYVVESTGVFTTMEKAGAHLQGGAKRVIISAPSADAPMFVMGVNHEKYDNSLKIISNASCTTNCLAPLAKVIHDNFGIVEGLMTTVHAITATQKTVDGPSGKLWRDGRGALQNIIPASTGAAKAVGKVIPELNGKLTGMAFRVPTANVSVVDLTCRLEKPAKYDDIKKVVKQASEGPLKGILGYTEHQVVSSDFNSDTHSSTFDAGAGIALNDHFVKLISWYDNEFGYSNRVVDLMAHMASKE
Heat shock 70 kDa protein 1A, sequence (P0DMV8 whole entry): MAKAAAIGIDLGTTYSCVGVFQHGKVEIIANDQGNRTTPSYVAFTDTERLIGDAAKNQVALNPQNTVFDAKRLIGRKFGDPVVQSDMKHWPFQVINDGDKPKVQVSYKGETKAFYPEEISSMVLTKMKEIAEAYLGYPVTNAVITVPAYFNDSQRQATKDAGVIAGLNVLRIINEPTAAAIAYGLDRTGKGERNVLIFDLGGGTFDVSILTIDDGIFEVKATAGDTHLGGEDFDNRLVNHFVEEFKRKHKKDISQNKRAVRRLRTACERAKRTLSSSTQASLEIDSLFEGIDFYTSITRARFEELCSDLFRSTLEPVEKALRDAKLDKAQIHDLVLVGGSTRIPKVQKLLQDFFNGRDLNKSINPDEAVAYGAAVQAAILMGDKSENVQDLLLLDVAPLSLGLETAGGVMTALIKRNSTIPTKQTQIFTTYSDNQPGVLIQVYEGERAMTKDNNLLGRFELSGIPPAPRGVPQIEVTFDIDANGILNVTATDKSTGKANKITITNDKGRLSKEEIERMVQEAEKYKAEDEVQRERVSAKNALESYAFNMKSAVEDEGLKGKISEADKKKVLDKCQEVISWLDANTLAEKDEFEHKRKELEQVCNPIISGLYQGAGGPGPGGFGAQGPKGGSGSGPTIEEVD
Voltage-dependent T-type calcium channel subunit alpha-1H, sequence (O95180 whole entry): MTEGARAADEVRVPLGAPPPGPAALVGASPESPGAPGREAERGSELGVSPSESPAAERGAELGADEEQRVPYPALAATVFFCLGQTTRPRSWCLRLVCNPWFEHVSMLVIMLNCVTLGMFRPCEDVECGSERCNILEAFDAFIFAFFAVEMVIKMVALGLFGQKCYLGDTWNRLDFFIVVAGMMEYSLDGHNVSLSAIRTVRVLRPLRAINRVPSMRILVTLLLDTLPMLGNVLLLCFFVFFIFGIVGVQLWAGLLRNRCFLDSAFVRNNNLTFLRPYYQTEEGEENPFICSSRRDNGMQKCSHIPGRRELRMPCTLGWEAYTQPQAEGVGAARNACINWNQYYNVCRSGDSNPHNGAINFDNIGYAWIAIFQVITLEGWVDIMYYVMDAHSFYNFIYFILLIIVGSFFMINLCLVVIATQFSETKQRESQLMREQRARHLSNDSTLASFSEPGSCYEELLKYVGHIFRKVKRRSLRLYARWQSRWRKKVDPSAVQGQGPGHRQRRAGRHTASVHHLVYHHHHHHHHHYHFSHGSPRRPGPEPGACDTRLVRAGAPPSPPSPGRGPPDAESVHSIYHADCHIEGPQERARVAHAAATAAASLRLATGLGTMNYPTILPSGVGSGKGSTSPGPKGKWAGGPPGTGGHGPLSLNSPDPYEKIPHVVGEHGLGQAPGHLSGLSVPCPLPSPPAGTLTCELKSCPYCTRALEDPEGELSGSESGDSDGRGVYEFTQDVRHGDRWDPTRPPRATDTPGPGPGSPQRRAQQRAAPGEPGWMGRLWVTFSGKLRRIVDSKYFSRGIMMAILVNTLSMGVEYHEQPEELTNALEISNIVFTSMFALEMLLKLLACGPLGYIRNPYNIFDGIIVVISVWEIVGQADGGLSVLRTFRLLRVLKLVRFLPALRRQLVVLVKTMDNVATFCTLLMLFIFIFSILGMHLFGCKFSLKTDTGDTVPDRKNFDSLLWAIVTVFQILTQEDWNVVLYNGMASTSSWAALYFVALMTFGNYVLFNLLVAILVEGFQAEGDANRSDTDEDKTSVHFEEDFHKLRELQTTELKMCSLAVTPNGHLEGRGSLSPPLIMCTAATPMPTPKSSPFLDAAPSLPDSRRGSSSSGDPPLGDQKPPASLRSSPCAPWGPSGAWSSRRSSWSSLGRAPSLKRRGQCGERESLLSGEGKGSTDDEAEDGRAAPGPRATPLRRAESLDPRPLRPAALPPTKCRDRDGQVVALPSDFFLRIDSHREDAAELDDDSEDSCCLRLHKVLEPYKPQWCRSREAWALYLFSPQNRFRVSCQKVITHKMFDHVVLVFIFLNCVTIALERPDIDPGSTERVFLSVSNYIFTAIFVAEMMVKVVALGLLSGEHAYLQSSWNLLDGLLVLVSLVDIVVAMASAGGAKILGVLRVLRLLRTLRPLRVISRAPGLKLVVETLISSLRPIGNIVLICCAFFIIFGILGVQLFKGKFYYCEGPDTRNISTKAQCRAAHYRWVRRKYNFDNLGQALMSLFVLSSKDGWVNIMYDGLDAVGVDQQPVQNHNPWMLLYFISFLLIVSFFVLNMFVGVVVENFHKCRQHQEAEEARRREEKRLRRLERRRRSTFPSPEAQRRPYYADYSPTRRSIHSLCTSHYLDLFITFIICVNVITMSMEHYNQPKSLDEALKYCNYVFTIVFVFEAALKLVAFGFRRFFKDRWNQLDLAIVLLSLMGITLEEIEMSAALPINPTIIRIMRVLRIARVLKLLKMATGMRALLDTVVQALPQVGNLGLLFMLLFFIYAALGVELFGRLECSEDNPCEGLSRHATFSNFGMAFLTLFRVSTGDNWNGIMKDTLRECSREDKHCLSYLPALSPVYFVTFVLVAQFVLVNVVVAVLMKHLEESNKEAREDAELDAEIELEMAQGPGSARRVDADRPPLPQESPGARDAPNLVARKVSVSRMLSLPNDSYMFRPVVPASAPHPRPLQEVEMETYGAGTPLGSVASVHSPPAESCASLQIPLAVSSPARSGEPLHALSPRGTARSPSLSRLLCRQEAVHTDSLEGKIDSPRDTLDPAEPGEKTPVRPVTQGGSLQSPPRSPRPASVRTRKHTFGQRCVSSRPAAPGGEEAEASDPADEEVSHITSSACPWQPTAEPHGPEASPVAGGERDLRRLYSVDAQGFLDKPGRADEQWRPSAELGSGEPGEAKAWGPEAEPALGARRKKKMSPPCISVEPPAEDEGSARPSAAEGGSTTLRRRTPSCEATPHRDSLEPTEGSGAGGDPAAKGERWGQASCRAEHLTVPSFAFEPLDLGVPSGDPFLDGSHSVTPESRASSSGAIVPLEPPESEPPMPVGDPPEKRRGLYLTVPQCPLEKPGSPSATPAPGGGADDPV
Polyadenylate-binding protein 1, sequence (P11940 whole entry): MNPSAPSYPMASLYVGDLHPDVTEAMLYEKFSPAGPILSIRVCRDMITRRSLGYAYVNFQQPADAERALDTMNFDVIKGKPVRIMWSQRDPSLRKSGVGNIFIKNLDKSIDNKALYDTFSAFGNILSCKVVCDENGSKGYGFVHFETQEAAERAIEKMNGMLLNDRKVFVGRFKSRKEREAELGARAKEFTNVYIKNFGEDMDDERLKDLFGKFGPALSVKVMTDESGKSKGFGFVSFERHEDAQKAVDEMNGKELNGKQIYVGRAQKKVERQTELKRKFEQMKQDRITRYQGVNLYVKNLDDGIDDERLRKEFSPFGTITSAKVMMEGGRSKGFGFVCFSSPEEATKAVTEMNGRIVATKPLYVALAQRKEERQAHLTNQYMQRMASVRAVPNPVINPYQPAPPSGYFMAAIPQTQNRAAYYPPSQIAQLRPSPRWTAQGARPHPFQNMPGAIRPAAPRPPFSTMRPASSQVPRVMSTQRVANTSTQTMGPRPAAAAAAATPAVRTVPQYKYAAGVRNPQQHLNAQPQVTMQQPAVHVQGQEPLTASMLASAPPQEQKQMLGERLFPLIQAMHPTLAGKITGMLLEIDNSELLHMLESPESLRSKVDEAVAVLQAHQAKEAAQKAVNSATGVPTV

With `CSc1nc2c(c(=O)[nH]c(=O)n2C)n1Cc1ccc(Cl)cc1`, the IC50 in assay [1] was 65.2 µM (active).

As for `Cc1ccc(-c2cc(N)n(-c3ccc(F)cc3)n2)cc1`, the EC50 is listed as > 55.7 µM (not active) in assay [2], > 55.7 µM (not active) in assay [3] and > 350 µM (not active) in “cells”.

In the case of `Oc1[nH]c2ccccc2c1N=Nc1ccccc1F`, the AC50 in the assay with HeLa is 100 µM (active). Besides, the EC50 in assay [4] is > 67.6 µM (inactive); with H4, > 120 µM (not active); in assay [5] it was > 99 µM (inactive); in [6] it was 31.7 µM (inactive); in [7], 8.29 µM (active); in assay [8], 4.39 µM (active).

Regarding `CC(C)COC(=O)c1ccc2c(c1)C1C=CCC1C(C(=O)O)N2` (stereo unspecified), the IC50 in assay [9] is 55.8 µM (active); in [10], 44.8 µM (active); in assay [11], 164 µM (active); in [12] it was 48.2 µM (active); in assay [13], 32.5 µM (active); in assay [14], 87.3 µM (active).

For the compound `NS(=O)(=O)c1ccc2c(c1)C1C=CCC1C(C(=O)O)N2` (stereo unspecified), the IC50 in [9] is > 100 µM (inactive); in assay [10] it was 47.3 µM (active); in assay [11], > 100 µM (not active); in assay [12], > 100 µM (inactive); in [13], 1.97 µM (active); in assay [14] it was 62.2 µM (active).

As for `C[C@@H](C(=O)Nc1ccc2ccccc2c1)[C@@H]1C[C@@]1(C)[C@@H](NC(=O)c1ccccc1)c1ccccc1`, in assay [15], the concentration for a half-maximal effect (EC50) is 2.95 µM (active).

On to `CC(C)Cc1cc(C(=O)NCc2cccs2)no1`, for which the EC50 in [2] and in [3] was > 55.7 µM (not active) each time.

For `CC(C)Cn1c2c(c(=O)[nH]c1=O)C(C(F)(F)F)(C(F)(F)F)NC(CCC1CCCCC1)=N2`, at X-box-binding protein 1, the “Absolute IC50 (XBP1)” value amounted to 10 µM.

Consider `Cn1cccc1Cc1nnc(SCC(=O)Nc2ccc(F)cc2F)n1-c1ccc(F)cc1`, for which the EC50 in assay [15] is 4.6 µM (active).

On to `O=c1c2cccc(Cl)c2nc2n1Cc1ccccc1-2`, for which the results for the EC50 (in the assay on H4; in assay [7]; in assay [8]) were > 120 µM (not active), 64.2 µM (active) and 23.4 µM (active), respectively. Also, the IC50 in assay [1] is 27.4 µM (active).

For `CC(C)c1ccc(O)c(NC(=S)NC(=O)c2ccc3c(c2)OCO3)c1`, on Beta-galactosidase, the IC50 was > 66.6 µM (inactive).

Turning to `C[C@H](NC(=O)c1ccco1)C(=O)Nc1cccc([N+](=O)[O-])c1`, the IC50 in [16] and in assay [17] was > 100 µM (inactive) in each case. Moreover, the AC50 on Paired box protein Pax-8 is 59.2 µM (active).
